Data reported in ChEMBL document CHEMBL1130462, “New enone derivatives of oleanolic acid and ursolic acid as inhibitors of nitric oxide production in mouse macrophages” (Bioorg Med Chem Lett, 1997).

Species on record: Mus musculus
Test: Compound was measured for its inhibitory activity on IFN-gamma-induced nitric oxide production in mouse macrophage
Assay type: functional
With `C[C@]12CCC(=O)C=C1CCC1[C@@H]2[C@@H](O)C[C@@]2(C)[C@H]1CC[C@]2(O)C(=O)CO` (single isomer, unassigned) [HYDROCORTISONE] the IC50 was 0.015 µM.

Species on record: Mus musculus
Test: Inhibitory activity on IFN-gamma-induced nitric oxide production in mouse macrophage at a concentration of 0.1-40 uM
Assay type: functional
Work on `CC1(C)CC[C@]2(C(=O)O)CC[C@]3(C)[C@H](C(=O)C=C4[C@@]5(C)C=CC(=O)C(C)(C)[C@@H]5CC[C@]43C)[C@@H]2C1` yielded an IC50 of 0.9 µM. `CC1(C)CC[C@]2(C(=O)O)CC[C@]3(C)C(=C2C1)C=C[C@@H]1[C@@]2(C)C=CC(=O)C(C)(C)[C@@H]2CC[C@]13C` showed an IC50 of 9.7 µM. `CC1(C)CC[C@]2(C(=O)O)CC[C@]3(C)C(C(=O)C[C@@H]4[C@@]5(C)C=CC(=O)C(C)(C)[C@@H]5CC[C@]43C)C2C1` (stereo partly drawn) was tested, and the IC50 was 3.3 µM. Work on `CC1(C)CC[C@]2(C(=O)O)CC[C@]3(C)C(CC=C4[C@@]5(C)C=CC(=O)C(C)(C)[C@@H]5CC[C@]43C)C2C1` (stereo partly drawn) yielded an IC50 of 5.2 µM. In the case of `CC1(C)CC[C@]2(C(=O)O)CC[C@]3(C)C(=CC[C@@H]4[C@@]5(C)C=C(O)C(=O)C(C)(C)[C@@H]5CC[C@]43C)C2C1` (stereo partly drawn), the IC50 is reported as 26.5 µM. With `CC1(C)CC[C@]2(C(=O)O)CC[C@]3(C)C(CC4OC45[C@@]4(C)C=CC(=O)C(C)(C)[C@@H]4CC[C@]53C)C2C1` (stereo partly drawn) the IC50 was 35.5 µM. Work on `CC1(C)CC[C@]2(C(=O)O)CC[C@]3(C)C(=CC(=O)[C@@H]4[C@@]5(C)C=CC(=O)C(C)(C)[C@@H]5CC[C@]43C)C2C1` (stereo partly drawn) yielded an IC50 of 1.8 µM. `C[C@@H]1CC[C@]2(C(=O)O)CC[C@]3(C)C(=CC[C@@H]4[C@@]5(C)C=CC(=O)C(C)(C)[C@@H]5CC[C@]43C)C2[C@H]1C` (stereo partly drawn) gave an IC50 of 17.6 µM. Compound `CC1(C)CC[C@]2(C(=O)O)CC[C@]3(C)C(=CC[C@@H]4[C@@]5(C)C=CC(=O)C(C)(C)[C@@H]5CC[C@]43C)C2C1` (stereo partly drawn) has an IC50 of 6 µM. Work on `CC1(C)CC[C@]2(C(=O)O)CC[C@]3(C)C(=C2C1)CC(=O)[C@@H]1[C@@]2(C)C=CC(=O)C(C)(C)[C@@H]2CC[C@]13C` yielded an IC50 of 2.6 µM. In the case of `COC1=C[C@]2(C)[C@H]3CC=C4C5CC(C)(C)CC[C@]5(C(=O)O)CC[C@@]4(C)[C@]3(C)CC[C@H]2C(C)(C)C1=O` (stereo partly drawn), the IC50 is reported as 30 µM. `C[C@@H]1CC[C@]2(C(=O)O)CC[C@]3(C)C(=CC(=O)[C@@H]4[C@@]5(C)C=CC(=O)C(C)(C)[C@@H]5CC[C@]43C)C2[C@H]1C` (stereo partly drawn) gave an IC50 of 5.1 µM. `COC(=O)[C@]12CCC(C)(C)CC1C1=CC[C@@H]3[C@@]4(C)C=CC(=O)C(C)(C)[C@@H]4CC[C@@]3(C)[C@]1(C)CC2` (stereo partly drawn) was tested, and the IC50 was 40 µM. `CC1(C)CC[C@]2(C(=O)O)CC[C@]3(C)C(CC[C@@H]4[C@@]5(C)C=CC(=O)C(C)(C)[C@@H]5CC[C@]43C)C2C1` (stereo partly drawn) was tested, and the IC50 was 8.5 µM. Compound `CC1(C)CC[C@]2(C(=O)O)CC[C@]3(C)C(=CC[C@@H]4[C@@]5(C)CC[C@H](O)C(C)(C)[C@@H]5CC[C@]43C)[C@@H]2C1` [OLEANOLIC_ACID] has an IC50 of 40 µM. Work on `CC1(C)CC[C@]2(C(=O)O)CC[C@]3(C)C(=CC[C@@H]4[C@@]5(C)CCC(=O)C(C)(C)[C@@H]5CC[C@]43C)[C@@H]2C1` [OLEANONIC ACID] yielded an IC50 of 37.1 µM.

Species on record: Mus musculus
Test: Compound was measured for its inhibitory activity on IFN-gamma-induced nitric oxide production in mouse macrophage; toxic at 5-10 uM
Assay type: functional
`C[C@@H]1CC[C@]2(C(=O)O)CC[C@]3(C)C(=CC[C@@H]4[C@@]5(C)CC[C@H](O)C(C)(C)[C@@H]5CC[C@]43C)C2[C@H]1C` (stereo partly drawn) was tested, and the IC50 was “toxic at 5-10 uM”.
